Results taken from US20060106064A1, “Butyrophenones and sigma-1 receptor antagonists protect against oxidative-stress” (University of North Texas Health Science Center at Fort …, priority 2004, published 2006).
“Also recorded” adds a separate entry of the source. Like-named read-outs stand apart in the source and are kept apart here.

Assays:
HT-22 cells = test: in vitro protection assay, glutamate-induced oxidative stress HT-22 cell model (Calcein AM cell survival)
human Sigma-1 receptor = target: T1, human Sigma-1 receptor (Homo sapiens, UniProt Q99720); test: [3H]-(+)-pentazocine binding to MCF-7 cells stably expressing the cloned human Sigma-1 receptor; settings: for affinity for the Sigma-1 receptor in words: FIG. 6
T1 construct: expressed in transfected cells

[1] = tested on: stroke (ICD-9 433, 434, 435)
NMDA receptors = settings: cited from earlier work
[2] = tested on: ferric chloride-induced lipid peroxidation in rat brain membranes; test: ferric chloride-induced lipid peroxidation in rat brain membranes (antioxidant activity); assay type: biochemical; settings: even very high concentrations
Protocol: […]. Antioxidant activity was measured by the ability of compounds to prevent ferric chloride-induced lipid peroxidation in rat brain membranes. The antioxidant ZYC5 is a known antioxidant control. […]. In summary, in vitro protection against glutamate-induced oxidative stress in HT-22 cells is mediated by antagonism of Sigma-1 receptors.

[3] = tested on: tMCAO induced brain injury; test: transient middle cerebral artery occlusion (tMCAO) ischemic stroke model, infarct volume by triphenyltetrazolium staining; assay type: in vivo, rat; settings: 0.05 mg/kg acute, immediately after induction of 60 minute occlusion, ovariectomized female Sprague-Dawley rats, assessed 24 hrs after the stroke
[4] = Mus musculus, HT-22, read-out: Potency (EC50 ± SEM, nM)
[5] = protection against oxidative stress induced by 20 mM glutamate, Table 1
[6] = Table 2, receptor target screen
[7] = read-out: Potency (EC50 ± SEM), Table 2, receptor target screen
[8] = read-out: Potency (EC50 ± SEM), Table 5
[9] = Table 4, read-out: Affinity for the cloned Sigma-1 receptor (Ki ± SEM)
[10] = patients with CABG in 1997, N = 11,444
[11] = read-out: Potency (EC50 ± SEM nM), Table 4

T1 sequence (Q99720 whole entry): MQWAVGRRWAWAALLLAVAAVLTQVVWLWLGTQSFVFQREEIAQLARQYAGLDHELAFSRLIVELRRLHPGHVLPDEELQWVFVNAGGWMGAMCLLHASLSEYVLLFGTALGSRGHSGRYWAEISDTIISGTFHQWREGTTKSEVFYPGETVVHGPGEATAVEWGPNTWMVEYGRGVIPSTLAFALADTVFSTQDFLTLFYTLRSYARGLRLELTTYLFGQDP

O=C(CCCN1CCC(O)(c2ccc(Cl)cc2)CC1)c1ccc(Cl)cc1 [Chlorohaloperidol, 1-(4-chlorophenyl)-4-[4-(4-chlorophenyl)-4-hydroxy-1-piperidyl]-butan-1-one]
in vitro protection in words (HT-22 cells; FIGS. 2, 3 and 6): high potency protection
EC50 (HT-22 cells; [4]): 4.3 ± 1.7 nM
Efficacy ± SEM (HT-22 cells; Table 4): 64 ± 3.4
Ki (human Sigma-1 receptor): 1.5 ± 0.36 nM
affinity for the Sigma-1 receptor in words (human Sigma-1 receptor): high affinity

CN1CCN(C2=Nc3ccccc3Oc3ccc(Cl)cc32)CC1 [Loxapine]
EC50 (HT-22 cells; [4]): > 1000 nM
Efficacy ± SEM (HT-22 cells; [5]): 0

O=C(OCCN1CCOCC1)C1(c2ccccc2)CCCCC1 [PRE-084]
Efficacy ± SEM (HT-22 cells; [6]): 0
EC50 (HT-22 cells; [7]): > 1000 nM
EC50 (HT-22 cells; [8]): > 1000 nM

OCCN1CCN(CCCN2c3ccccc3Sc3ccc(Cl)cc32)CC1 [Perphenazine]
EC50 (HT-22 cells; [4]): > 1000 nM
Efficacy ± SEM (HT-22 cells; [5]): 0

O=C(c1ccc(F)cc1)C1CCN(CCn2c(=O)[nH]c3ccccc3c2=O)CC1 [Ketanserin]
EC50 (HT-22 cells; [4]): > 1000 nM
Efficacy ± SEM (HT-22 cells; [6]): 0

O=C(CCCN1CCC(O)(c2ccc(Br)cc2)CC1)c1ccc(F)cc1 [Bromperidol, 4-[4-(4-bromophenyl)-4-hydroxy-1-piperidyl]-1-(4-fluorophenyl)-butan-1-one]
in vitro protection in words (HT-22 cells; FIGS. 2, 3 and 6): high potency protection
EC50 (HT-22 cells; [4]): 0.95 ± 0.82 nM
Efficacy ± SEM (HT-22 cells; Table 4): 67 ± 9.8
affinity for the Sigma-1 receptor in words (human Sigma-1 receptor): high affinity
Ki (human Sigma-1 receptor; [9]): 1.2 ± 0.21 nM

CN1CCN2c3ncccc3Cc3ccccc3C2C1 (centres unmarked) [Mirtazapine]
EC50 (HT-22 cells; [4]): > 1000 nM
Efficacy ± SEM (HT-22 cells; [6]): 0

Cc1nc2n(c(=O)c1CCN1CCC(c3noc4cc(F)ccc34)CC1)CCCC2 [Risperidone]
Efficacy ± SEM (HT-22 cells; [5]): 0

OCCN1CCN(CCCN2c3ccccc3Sc3ccc(C(F)(F)F)cc32)CC1 [Flupenazine]
Efficacy ± SEM (HT-22 cells; [5]): 0
EC50 (HT-22 cells; read-out: Potency (EC50 ± SEM), protection against oxidative stress induced by 20 mM glutamate, Table 1): > 1000 nM

O=C(CCCN1CCC(n2c(=O)[nH]c3ccccc32)CC1)c1ccc(F)cc1 [Benperidol, 1-[1-[4-(4-fluorophenyl)-4-oxo-butyl]-4-piperidyl]-3H-benzoimidazol-2-one]
in vitro protection in words (HT-22 cells; FIGS. 2, 3 and 6): do not provide potent protection
EC50 (HT-22 cells; [4]): 1160 ± 498 nM
Efficacy ± SEM (HT-22 cells; Table 4): 66 ± 23
Ki (human Sigma-1 receptor): 252 ± 42 nM
affinity for the Sigma-1 receptor in words (human Sigma-1 receptor): nor do they have high affinity

Clc1ccc(N2CCN(Cc3c[nH]c4ncccc34)CC2)cc1 [L745870, 3-((4-(4-Chlorophenyl)piperazin-1-yl)-methyl)-1H-pyrrolo-2,3-b-pyridine]
Efficacy ± SEM (HT-22 cells): 50 ± 9.6
EC50 (HT-22 cells; read-out: In vitro Protective Potency (EC50 ± SEM)): 895 ± 736 nM
EC50 (HT-22 cells; read-out: Potency (EC50 ± SEM nM)): 895 ± 736 nM
EC50 (HT-22 cells; read-out: Potency (EC50 ± SEM)): 895 ± 736 nM

CSc1ccc2c(c1)N(CCC1CCCCN1C)c1ccccc1S2 (centres unmarked) [Thioridazine]
Efficacy ± SEM (HT-22 cells; [5]): 0

CC(=O)CC(c1ccccc1)c1c(O)c2ccccc2oc1=O (centres unmarked) [Coumadin]
B (logistic regression coefficient for stroke) ([1]; full model N = 145,576): 1.018
Odds Ratio for stroke ([1]; full model N = 145,576): 2.769
times more likely to have a stroke during the year ([1]; general model): about 2.7 times
B (logistic regression coefficient for stroke) [1, 10]: 0.849
Odds Ratio for stroke [1, 10]: 2.337

OC(CCCN1CCC(O)(c2ccc(Cl)cc2)CC1)c1ccc(F)cc1 (centres unmarked)
in vitro protection in words (HT-22 cells; FIGS. 2, 3 and 6): high potency protection
Efficacy ± SEM (HT-22 cells; Table 4): 58 ± 5.6
EC50 (HT-22 cells; [11]): 12.9 ± 12.2 nM
affinity for the Sigma-1 receptor in words (human Sigma-1 receptor): high affinity

CCN1CCC[C@H]1CNC(=O)c1c(O)c(Cl)cc(Cl)c1OC [S-(−)-Raclopride]
in vitro protection in words (HT-22 cells; FIGS. 2, 3 and 6): no neuroprotection
EC50 (HT-22 cells; [4]): > 1000 nM
Efficacy ± SEM (HT-22 cells; [6]): 0
Efficacy ± SEM (HT-22 cells; [5]): 0
EC50 (HT-22 cells; [7]): > 1000 nM

CN1CCN(C2=Nc3cc(Cl)ccc3Nc3ccccc32)CC1 [Clozapine]
Efficacy ± SEM (HT-22 cells; [5]): 0

Clc1ccc2c(c1)C(N1CCNCC1)=Nc1ccccc1O2 [Amoxapine]
Efficacy ± SEM (HT-22 cells; [6]): 0

OC1(c2ccc(Cl)cc2)CCN(Cc2c[nH]c3ccccc23)CC1 [L741626]
Efficacy ± SEM (HT-22 cells; [6]): 0
EC50 (HT-22 cells; [7]): > 1000 nM

Cc1cccc(C(=O)NCN2CCN(c3ccccc3C#N)CC2)c1 [PD168077]
Efficacy ± SEM (HT-22 cells; [6]): 0
EC50 (HT-22 cells; [7]): > 1000 nM

O=C(CCCN1CCC(O)(c2cccc(C(F)(F)F)c2)CC1)c1ccc(F)cc1 [Trifluperidol, 1-(4-fluorophenyl)-4-[4-hydroxy-4-[3-(trifluoromethyl)phenyl]-1-piperidyl]-butan-1-one]
Efficacy ± SEM (HT-22 cells): 55 ± 3.0
in vitro protection in words (HT-22 cells): high potency protection
EC50 (HT-22 cells; [4]): 7.5 ± 6.3 nM
affinity for the Sigma-1 receptor in words (human Sigma-1 receptor): high affinity

OC1(c2ccc(Cl)c(C(F)(F)F)c2)CCN(CCCC(c2ccc(F)cc2)c2ccc(F)cc2)CC1 [Penfluridol, 1-[4,4-bis(4-fluorophenyl)butyl]-4-[4-chloro-3-(trifluoromethyl)phenyl]-piperidin-4-ol]
in vitro protection in words (HT-22 cells; FIGS. 2, 3 and 6): moderate protective potency
Efficacy ± SEM (HT-22 cells; Table 4): 80 ± 20
EC50 (HT-22 cells; [11]): 350 ± 246 nM
affinity for the Sigma-1 receptor in words (human Sigma-1 receptor): moderate affinity
Ki (human Sigma-1 receptor; [9]): 53 ± 15 nM

O=C(CCCN1CC=C(n2c(=O)[nH]c3ccccc32)CC1)c1ccc(F)cc1 [Droperidol, 1-[1-[4-(4-fluorophenyl)-4-oxo-butyl]-3,6-dihydro-2H-pyridin-4-yl]-3H-benzoimidazol-2-one]
in vitro protection in words (HT-22 cells; FIGS. 2, 3 and 6): do not provide potent protection
EC50 (HT-22 cells; [4]): 5270 ± 2230 nM
Efficacy ± SEM (HT-22 cells; Table 4): 100

Cc1c(C2CCN(CCc3ccccc3)CC2)noc1-c1ccc(Cl)cc1 [L741742, 5-(4-Chlorophenyl)-4-methyl-3-(l-(2-phenylethyl)piperidin-4-yl)isoxazole]
Efficacy ± SEM (HT-22 cells; [6]): 61 ± 2.7
Efficacy ± SEM (HT-22 cells; Table 4): 61 ± 2.7
EC50 (HT-22 cells; read-out: In vitro Protective Potency (EC50 ± SEM), Table 3): 1.2 ± 0.82 nM
EC50 (HT-22 cells; [11]): 1.2 ± 0.82 nM
EC50 (HT-22 cells; [7]): 1.2 ± 0.82 nM
Ki (human Sigma-1 receptor; [9]): 4.8 ± 0.41 nM

CCC(Oc1ccc(Cl)cc1)C(=O)OC1CC2CCC(C1)N2C (centres unmarked) [SM-21]
in vitro protection in words (HT-22 cells; FIGS. 2, 3 and 6): no protective effect
Efficacy ± SEM (HT-22 cells; [6]): 0
EC50 (HT-22 cells; [7]): > 1000 nM
EC50 (HT-22 cells; [8]): > 1000 nM

CN(C)CCCN1c2ccccc2Sc2ccc(Cl)cc21 [Chlorpromazine]
EC50 (HT-22 cells; [4]): > 1000 nM
Efficacy ± SEM (HT-22 cells; [5]): 0

CN1CCN(CCc2ccc(Cl)c(Cl)c2)CC1 [BD1063]
Efficacy ± SEM (HT-22 cells; [6]): 61 ± 7.5
Efficacy ± SEM (HT-22 cells; Table 4): 61 ± 7.5
Efficacy ± SEM (HT-22 cells; Table 5): 61 ± 7.5
EC50 (HT-22 cells; [11]): 5.9 ± 3.5 nM
EC50 (HT-22 cells; [7]): 5.9 ± 3.5 nM
EC50 (HT-22 cells; [8]): 5.9 ± 3.5 nM
Ki (human Sigma-1 receptor; [9]): 3.1 ± 1.4 nM
Ki (human Sigma-1 receptor; Table 5, own value, read-out: Affinity for the Sigma-1 receptor (Ki)): 3.1 nM

O=C(CCCN1CCC2(CC1)C(=O)NCN2c1ccccc1)c1ccc(F)cc1 [Spiperone, 8-[4-(4-fluorophenyl)-4-oxo-butyl]-1-phenyl-1,3,8-triazaspiro[4.5]decan-4-one]
in vitro protection in words (HT-22 cells; FIGS. 2, 3 and 6): do not provide potent protection
Efficacy ± SEM (HT-22 cells; Table 4): 100
affinity for the Sigma-1 receptor in words (human Sigma-1 receptor): nor do they have high affinity
Ki (human Sigma-1 receptor; [9]): 1050 ± 334 nM

CN(C)CC/C=C1/c2ccccc2Sc2ccc(Cl)cc21 [Chlorprothixene]
EC50 (HT-22 cells; [4]): > 1000 nM
Efficacy ± SEM (HT-22 cells; [5]): 0

O=C(CCCN1CCC(O)(c2ccc(Cl)cc2)CC1)c1ccc(F)cc1 [Haloperidol, 4-[4-(4-chlorophenyl)-4-hydroxy-1-piperidyl]-1-(4-fluorophenyl)-butan-1-one]
affinity of NMDA receptors for haloperidol (NMDA receptors): > 1 µM
in vitro protection in words (HT-22 cells; FIGS. 2, 3 and 6): strong neuroprotection; also recorded: high potency protection
Efficacy ± SEM (HT-22 cells; Table 4): 65 ± 2.5
Efficacy ± SEM (HT-22 cells; [5]): 65 ± 2.5
B (logistic regression coefficient for stroke) ([1]; full model N = 145,576): −0.464
B (logistic regression coefficient for stroke) [1, 10]: −0.926
decrease of risk of stroke ([1]; patients with CABG surgery in 1997, significant only at the 0.07 level): about 60%
antioxidant activity (prevention of lipid peroxidation) [2]: failed to prevent ferric chloride-induced peroxidation of brain lipids
reduction in infarct volume [3]: 50%

O=c1[nH]c2ccccc2n1C1CCN(CCCC(c2ccc(F)cc2)c2ccc(F)cc2)CC1 [Pimozide]
EC50 (HT-22 cells; Mus musculus, HT-22, read-out: In vitro Protective Potency (EC50 ± SEM, nM)): > 1000 nM
EC50 (HT-22 cells; [4]): > 1000 nM
Efficacy ± SEM (HT-22 cells; [6]): 0
